From PMC7461568, “Novel Cyclic Lipopeptide Antibiotics: Effects of Acyl Chain Length and Position” (International Journal of Molecular Sciences, 2020)
≈ marks a conversion by molar mass, not a printed value. Like-named read-outs stand apart in the source and are kept apart here. Where a SMILES comes first, the peptide text is derived from it. Bridges are numbered along the chain shown (N, C = ends). [ ]: non-standard residue; d: D form. The star is where a group is joined. Bip = N[C@@H](Cc1ccc(-c2ccccc2)cc1)C(=O)O; 2Nal = N[C@@H](Cc1ccc2ccccc2c1)C(=O)O; X1 = CC[C@H](C)CCCCC(=O)*; Dab = NCC[C@H](N)C(=O)O; Hexanoyl = CCCCCC(=O)*; AEEA = NCCOCCOCC(=O)O; Butyryl = CCCC(=O)*

Experiments:
[1] = test system: K. pneumonia ATCC 13883; assay type: cell-based, Klebsiella pneumoniae; conditions: K. pneumoniae ATCC 13883; MHB-II, inoculum 5 × 10^5 CFU/mL, 37 °C, 18–24 h, visual read-out, triplicate
Protocol: (§1) In the original report on S3(B), MIC experiments were carried out by using non-cation-adjusted MHB-I media. To this, bovine serum albumin (BSA) and acetic acid were added. The rationale for choosing a medium without cations is that cation-adjusted media (MHB-II) in some cases causes substantial inhibition of the activity of cationic peptides. Furthermore, some peptides are at risk of precipitation when diluted into MHB medium, which can be avoided via the addition of BSA and acetic acid. However, the use of MHB-II is favorable to imitate the in vivo conditions as much as possible. Both media were tested with and without the addition of BSA and acetic acid by trial and error. The use of pure MHB-II was compatible with S3(B) and its fatty acid analogues, and therefore was chosen for the MIC determinations. Noticeably, MHB-I with BSA and acetic acid led to precipitation of lipopeptides in the present work.
(§2) Cation-adjusted Mueller-Hinton broth (MHB-II) media (BD BBLTM Beef extract powder, BD BactoTMCasamino acids, and DIFCO soluble starch was from Becton, Dickinson and Company©, Franklin Lakes, NJ, USA). MHB media supplemented with 0.2% BSA was from Sigma Aldrich (St. Louis, MO, USA) and 0.01% acetic acid from VWR®. The 96 well plate cell-culture cluster, round-bottom, polypropylene plates, and V-shaped 96 well polypropylene plates were purchased from Corning® Inc., Costar®, Corning, NY, USA. Microseal® film was obtained from Bio-Rad Laboratories, Inc., Hercules, CA, USA. A VersaMaxTM Tunable Microplate Reader (Molecular Devices LLC, Sunnyvale, CA, USA) was used and the data were evaluated on a Softmax® Pro (Molecular Devices LLC).
(§3) The MIC experiments were performed according to a protocol adapted from Wiegand et al., with minor modifications. The MICs were determined in triplicate. The peptides were dissolved in Milli-Q water to produce 10 mg/mL stock solutions in small glass containers. The bacterial isolates to be tested were streaked onto agar plates to obtain single colonies, and the plates were incubated at 37 °C for 18–24 h. The strains tested were S. aureus ATCC 29213, P. aeruginosa ATCC 27853, E. coli ATCC 25922, A. baumannii ATCC 19606, and K. pneumonia ATCC 13883. Test compounds were prepared in 2-fold dilutions in 50 μL volumes in polypropylene microtiter plates. Bacterial cultures grown to OD600 = 0.1–0.4 were diluted to a desired OD600 of 0.001–0.002 corresponding to 1 × 10^6 CFU/mL. Next, 50 μL bacterial suspension was added to the microtiter plates, giving a final bacterial inoculum of 5 × 10^5 CFU/mL per well. The plates were incubated at 37 °C for 18–24 h. […] The MIC values were visually evaluated, and the MIC was set to the lowest concentration […] based on triplicate measurements. […]

[2] = test system: E. coli ATCC 25922; assay type: cell-based, Escherichia coli; conditions: MHB-II, inoculum 5 × 10^5 CFU/mL, 37 °C, 18–24 h, visual read-out, triplicate
Protocol: as §1, §2, §3

[3] = Hydrophobicity by analytical RP-HPLC (%B at peak elution); assay type: physicochemical; conditions: chromatographic, percentage of mobile phase B at the peak elution time
Description: To investigate the effect of attaching fatty acids to a macrocycle, fatty acid tails of different lengths were used. When the carbon chain was elongated, the hydrophobicity of the peptide was increased gradually. Herein, the hydrophobicity is expressed as the percentage of mobile phase B at the peak elution time on an RP-HPLC system.

[4] = test system: human erythrocytes; assay: Hemolysis of red blood cells; conditions: 1 h; for %H, percent hemolytic activity against red blood cells at 150 μM: human erythrocytes, 0.5% v/v RBC suspension in PBS, peptide 150 μM, 37 °C, absorbance 414 nm, melittin positive control, triplicate
Protocol: The hemolysis experiments were performed according to the protocol described in Reference. The peptides were tested at concentrations from 2.35–150 μM, using melittin as positive control and PBS as negative control. One premade tablet of PBS was dissolved in 200 mL Milli-Q water. The solution was kept in the refrigerator for a maximum of two days. The day before the test, the positive control wells of the 96 well polypropylene plates were precoated with 150 μL of melittin 5 μM solution in PBS. The solution was prepared in Protein LoBind Eppendorf tubes. The day of the test, the solution was discarded and the wells were washed three times with 150 μL PBS. A melittin 2.50 μM solution in PBS was prepared in Protein LoBind Eppendorf tubes—500 μL for every plate to be used. The mass of the peptide needed to reach a final concentration of 300 μM (to start testing down from 150 μM) was calculated, since a volume of 500 μL was desirable. […] The peptides were dissolved in PBS and tested in triplicate.
In a 96 well polypropylene plate, 150 μL of peptide solution was transferred to three wells in Row A. Therefore, each plate could accommodate up to four peptides. A 2-fold serial dilution of the peptides was obtained by transferring 75 μL of the solutions from Row A to the corresponding wells in Row B, mixing a couple of times. From Row B, 75 μL was transferred to Row C and so on until Row G, where 75 μL was discarded after mixing. Volumes of 75 μL melittin (2.50 μM) was transferred to the positive control wells in H1–H6. Preparation of the RBC suspension: 1 mL of whole blood was transferred to a cryotube with 3 mL of PBS, and then it was gently mixed and centrifuged for 8 min at 3000 rpm. The supernatant was discarded, and the process was repeated twice; with 4 mL at 3000 rpm and 4 mL at 4000 rpm, respectively. From the final RBC pellet, 40 μL was transferred to 8 mL of PBS (multiplied by the number of test plates needed). This corresponded to a 0.5% v/v RBC suspension. The suspension was gently mixed and transferred into a CAPPOrigami reservoir. Using a multichannel pipette, 75 μL of the suspension was transferred into each well and mixed in the direction of increasing concentration. The control wells were mixed separately. The plates were covered with BioradMicroseal foil and incubated at 37 °C for 1 h. The plates (maximum two) were centrifuged for 10 min at 4000 rpm, followed by transferring of supernatant (60 μL) from each well into the corresponding wells in a clear ELISA plate. The absorbance (A) of each well was measured at λ = 414 nm using the software program Softmax(R) Pro.

[5] = test system: P. aeruginosa ATCC 27853; assay type: cell-based, Pseudomonas aeruginosa; conditions: MHB-II, inoculum 5 × 10^5 CFU/mL, 37 °C, 18–24 h, visual read-out, triplicate
Protocol: as §1, with “The use of pure MHB-II was compatible with S3(B) and its fatty acid analogues, and therefore was chosen for the MIC determinations. Noticeably, MHB-I with BSA and acetic acid led to precipitation of lipopeptides in the present work.” left out
(§4) Cation-adjusted Mueller-Hinton broth (MHB-II) media (BD BBLTM Beef extract powder, BD BactoTMCasamino acids, and DIFCO soluble starch was from Becton, Dickinson and Company©, Franklin Lakes, NJ, USA). […] A VersaMaxTM Tunable Microplate Reader (Molecular Devices LLC, Sunnyvale, CA, USA) was used and the data were evaluated on a Softmax® Pro (Molecular Devices LLC).
(§5) The MIC experiments were performed according to a protocol adapted from Wiegand et al., with minor modifications. The MICs were determined in triplicate. […] The MIC values were visually evaluated, and the MIC was set to the lowest concentration […] based on triplicate measurements. […]

[6] = test system: A. baumannii ATCC 19606; assay type: cell-based, Acinetobacter baumannii; conditions: MHB-II, inoculum 5 × 10^5 CFU/mL, 37 °C, 18–24 h, visual read-out, triplicate
Protocol: as §1, with “The use of pure MHB-II was compatible with S3(B) and its fatty acid analogues, and therefore was chosen for the MIC determinations. Noticeably, MHB-I with BSA and acetic acid led to precipitation of lipopeptides in the present work.” left out
as §4, §5

[7] = test system: P. aeruginosa ATCC 27853; conditions: for log reduction of cell count within first hour of treatment: 1 h, MHB-II, 37 °C, shaking, n = 3
Protocol: The MIC constitutes a limited measure for antimicrobial activity. It indicates whether or not AMPs in different concentrations are able to prevent visible growth of bacteria.
Time-kill experiments were performed on balanced exponentially growing cultures of P. aeruginosa ATCC 27853. We used balanced cultures as described in Oddo et al.. Briefly, overnight cultures were prepared in MHB-II broth at 37 °C with shaking. Overnight cultures were back-diluted and grown exponentially for no less than 8–10 generations before experimentation. When experiments were done, exponentially growing cultures were back-diluted to an OD600 = 0.0005 approximately 5 × 10^5 CFU, into fresh MHB-II heated to 37 °C. Samples (250 μL) were taken at time points 0, 1, 3, 5, and 24 h. Samples were spun down at 8000× g for 5 min and washed in 1 mL of NaCl 0.9% before being spun down again and re-suspended in 250 μL NaCl 0.9%. From this, 10-fold dilution series were prepared and 10 μL samples were spot-plated in triplicate onto LB-agar. From the undiluted sample, 100 μL samples were also plated, i.e., giving a detection limit of 10 CFU/mL.

[8] = test system: S. aureus ATCC 29213; assay: microbe, parasite or virus in culture; assay type: cell-based, Staphylococcus aureus; conditions: Staphylococcus aureus, ATCC29213, read-out: Minimum inhibitory concentration, SA
Protocol: as §1, with “The use of pure MHB-II was compatible with S3(B) and its fatty acid analogues, and therefore was chosen for the MIC determinations. Noticeably, MHB-I with BSA and acetic acid led to precipitation of lipopeptides in the present work.” left out
as §4, §5

| Structure (SMILES) | Minimum inhibitory concentration, KP [1] [µg/mL] | Minimum inhibitory concentration, EC [2] [µg/mL] | %B at peak of elution in analytical HPLC (hydrophobicity) [3] [%] | %H, percent hemolytic activity against red blood cells at 150 μM [4] [%] | further results |
| --- | --- | --- | --- | --- | --- |
| CCCC(=O)NCC[C@@H]1NC(=O)[C@H](CCN)NC(=O)[C@H](CCCNC(=N)N)NC(=O)[C@H](Cc2ccc3ccccc3c2)NC(=O)[C@H](CCN)NC(=O)[C@H](CC(N)=O)NC(=O)[C@H](CCN)NC(=O)[C@H](Cc2ccc3ccccc3c2)NC(=O)COCCOCCNC1=O [(C4)^5] (cyclo([Dab][2Nal]R[Dab][Dab](Butyryl)[AEEA][2Nal][Dab]N)) | >64 | 64 (≈ 50 µM) | 62 | 5 | %B at peak of elution in analytical HPLC (hydrophobicity) ([3]; listed as (C4)^7): 64%; %H, percent hemolytic activity against red blood cells at 150 μM ([4]; listed as (C4)^7): 4% |
| CCCCCC(=O)NCC[C@@H]1NC(=O)[C@H](CCN)NC(=O)[C@H](CCCNC(=N)N)NC(=O)[C@H](Cc2ccc3ccccc3c2)NC(=O)[C@H](CCN)NC(=O)[C@H](CC(N)=O)NC(=O)[C@H](CCN)NC(=O)[C@H](Cc2ccc3ccccc3c2)NC(=O)COCCOCCNC1=O [(C6)^5] (cyclo([Dab][2Nal]R[Dab][Dab](Hexanoyl)[AEEA][2Nal][Dab]N)) | >64 | 32 (≈ 24.5 µM) | 65 | 13 | Minimum inhibitory concentration, PA [5]: 16 µg/mL (≈ 12.2 µM); %B at peak of elution in analytical HPLC (hydrophobicity) ([3]; listed as (C6)^7): 69%; %H, percent hemolytic activity against red blood cells at 150 μM ([4]; listed as (C6)^7): 8%; Minimum inhibitory concentration, AB [6]: 64 µg/mL (≈ 48.9 µM) |
| CC[C@H](C)CCCCC(=O)N[C@@H](CCN)C(=O)N[C@H](C(=O)N[C@@H](CCN)C(=O)N[C@H]1CCNC(=O)[C@H]([C@@H](C)O)NC(=O)[C@H](CCN)NC(=O)[C@H](CCN)NC(=O)[C@H](CC(C)C)NC(=O)[C@@H](CC(C)C)NC(=O)[C@H](CCN)NC1=O)[C@@H](C)O [Colistin, reference compound] (X1-[Dab]T[Dab][Dab][Dab][dL]L[Dab][Dab]T; lactam 4-C (inferred); N-terminus assumed) | 0.5 (≈ 0.428 µM) | 0.25 (≈ 0.214 µM) | – | – | log reduction of cell count within first hour of treatment ([7]; 5 × MIC ((C8)^5 40 μg/mL; colistin 2.5 μg/mL)): 4.5 log; cell count / growth after 24 h ([7]; 5 × MIC ((C8)^5 40 μg/mL; colistin 2.5 μg/mL), 24 h, detection limit 10 CFU/mL): No growth |
| N=C(N)NCCC[C@@H]1NC(=O)[C@H](Cc2ccc3ccccc3c2)NC(=O)[C@H](CCN)NC(=O)[C@H](CC(N)=O)NC(=O)[C@H](CCN)NC(=O)[C@H](Cc2ccc3ccccc3c2)NC(=O)COCCOCCNC(=O)[C@H](Cc2ccc(-c3ccccc3)cc2)NC(=O)[C@H](CCN)NC1=O [S3(B)] (cyclo([Dab][2Nal]R[Dab][Bip][AEEA][2Nal][Dab]N)) | – | – | 71 | 77 | log reduction of cell count within first hour of treatment ([7]; 1 × MIC (8 μg/mL)): 2.5 log; HD50 (hemolysis) ([4]; red cells of human): 69 µM |
| CN[C@H](CC(C)C)C(=O)N[C@H]1C(=O)N[C@@H](CC(N)=O)C(=O)N[C@H]2C(=O)N[C@H]3C(=O)N[C@H](C(=O)N[C@H](C(=O)O)c4cc(O)cc(O)c4-c4cc3ccc4O)[C@H](O)c3ccc(c(Cl)c3)Oc3cc2cc(c3O[C@@H]2O[C@H](CO)[C@@H](O)[C@H](O)[C@H]2O[C@H]2C[C@](C)(N)[C@H](O)[C@H](C)O2)Oc2ccc(cc2Cl)[C@H]1O [Vancomycin, reference compound] | – | – | – | – | MIC [8]: 0.5 µg/mL (≈ 0.345 µM) |
